Source: patent US6713445B1, “Peptides for treatment of HIV infection” (Advanced Immuni T, Inc., priority 1998, dated 2004)
Where a SMILES comes first, the peptide text is derived from it.

System: GP120-Mediated Neurotoxicity
Experiment: Neuronal survival assay with 1 pM gp120 (count of neuron-specific enolase positive cells)
Type: cell-based
Conditions: together with 1 pM gp120 (RF isolate), primary cultures of mixed rat neurons glia; for inhibition of neuronal death caused by gp120 (in words): dose-dependent; for protection against gp120 neuronal death: peptide at 10 μM
Description: Materials: A gp120 isolate RFII was obtained from Dr. P. Nara, NCI, NIH. All of the gp120's are purified, >95% homogeneous and previously tested for neurotoxicity with cultured neurons and were used at 1 pM final concentration in cultures of neurons. Peptides of the formula Ile-Lys-Glu-Tyr-Phe-Thr-Ser (SEQ. ID NO: 2), Ile-Lys-Glu-Tyr-Phe (SEQ. ID NO: 3), and Leu-Glu-Ser-Tyr-Thr (SEQ. ID NO: 1), were obtained from Peninsula Labs, CA. and synthesized by solid-phase Merrified methods and purified to greater than 95% homogeneity by two HPLC methods and structure confirmed by MASS Spectroscopy Analysis.
Neuronal cell culture: Dissociated hippocampal cultures are prepared from neonatal (day 2) rat cortex and hippocampus by known methods. Sterilely dissected brain tissue is minced and treated with 0.125% trypsin for 30 minutes then gently triturated with fire-polished Pasteur pipes and plated in six-well trays (35 mm^2) at low density (50,000 cells/35 mm^2 dish) upon confluent layers of astrocytes in medium containing D-MEM, penicillin (25 U/ml), streptomycin ([…]), D-glucose (0.6%), and 10% heat-inactivated fetal calf serum (HyClone Laboratories), supplemented with insulin, transferrin, selenium, corticosterone, and triiodothyronine. Medium is changed after 3 days. At 6 days, half the medium is exchanged for fresh medium. The astrocyte feeder layers were prepared from the cortexes of neonatal rats following dissection and trituration. Plating was 2.5×10^2 cells per well. Feeder layers were grown in Eagles's minimal essential medium (Formula No. 82-0234DJ, Gibco) with 10% fetal calf serum until confluent (7-14 days). With this medium the feeder cultures were free of neurons and consisted of flat cells that were stained by antibodies to glial fibrillary acidic protein, a standard immunocytochemical marker for astroglia. When hippocampal or cortical cells were added to the confluent feeder layer, the medium was changed to the following composition: 5% horse serum and MEM supplement with defined medium components. The hippocampal or cortical cultures were treated with 5′-fluoro-2′-deoxyuridine (15 ug/ml plus uridine, 35 ug/ml) to suppress the overgrowth of background cells and allow the establishment of neurons. The neurons in these cultures are post-mitotic. The neuronal cultures were allowed to grow for 1 week prior to the beginning of the experimental period. Before treating the cultures, a complete change of medium was given.
Neuronal survival assay: GP120's, with or without added peptides, were diluted in phosphate buffered saline and added to the cultures, which were treated only once for a four day period. At termination, cultures were fixed with glutaraldehyde as previously described. At the end of the test period, neuronal survival was assessed by immunohistochemical detection of neuron-specific enolase positive cells (neurons). Cultures were counted in a blinded fashion without knowledge of sample treatment in 40 fields at pre-determined coordinate locations. The total area counted is 50 mm^2. Each value reported is the mean±the standard error of 3-4 determinations. Control (saline treated) wells from these cultures have 395±20 neurons. Statistical comparisons between experimental and control culture neuronal cell counts are via analysis of variance with the Student-Newman-Kuels multiple comparison of means test.
The dotted line in FIG. 1 represents the mean number of neurons in control cultures.

Molecule | inhibition of neuronal death caused by gp120 (in words) | protection against gp120 neuronal death | EC50 (read-out: EC50 for preventing neuronal loss caused by gp120, four day period) [µM]
CC[C@H](C)[C@H](N)C(=O)N[C@@H](CCCCN)C(=O)N[C@@H](CCC(=O)O)C(=O)N[C@@H](Cc1ccc(O)cc1)C(=O)N[C@@H](Cc1ccccc1)C(=O)N[C@H](C(=O)N[C@@H](CO)C(=O)O)[C@@H](C)O [IKEYFTS, Ile-Lys-Glu-Tyr-Phe-Thr-Ser] (H-IKEYFTS-OH; N-terminus and C-terminus assumed) | preventing neuronal loss | fully protective | 0.1
Ile-Lys-Glu-Tyr-Phe (IKEYF; mammalian) [shorter pentapeptide used to show specificity] | inactive | – | –
Leu-Glu-Ser-Tyr-Thr (LESYT; mammalian) | preventing neuronal loss | partially protective | –
